Here are results for 16 compounds from patent publication US20240269139A1, “COMPOUNDS FOR TARGETED PROTEIN DEGRADATION OF KINASES” (DANA-FARBER CANCER INSTITUTE, INC., priority 2020, published 2024).

The structures appear in SMILES notation. Read-outs that look alike come from different tables or passages of the source.

Common to all, as to format: cell-based
The target in assay [1] is protein kinases (human kinome) (Homo sapiens, UniProt Q9NYV4).
The target of assay [2] is protein kinases (human kinome) (Homo sapiens, UniProt P41240). The conditions noted are these: for logFC of CSK: Accession P41240; for logFC CSK: CSK (P41240), down.
Assay [3] concerns the target T1, protein kinases (human kinome) (Homo sapiens, UniProt Q53H12).
T1 sequence (Q53H12 1-422): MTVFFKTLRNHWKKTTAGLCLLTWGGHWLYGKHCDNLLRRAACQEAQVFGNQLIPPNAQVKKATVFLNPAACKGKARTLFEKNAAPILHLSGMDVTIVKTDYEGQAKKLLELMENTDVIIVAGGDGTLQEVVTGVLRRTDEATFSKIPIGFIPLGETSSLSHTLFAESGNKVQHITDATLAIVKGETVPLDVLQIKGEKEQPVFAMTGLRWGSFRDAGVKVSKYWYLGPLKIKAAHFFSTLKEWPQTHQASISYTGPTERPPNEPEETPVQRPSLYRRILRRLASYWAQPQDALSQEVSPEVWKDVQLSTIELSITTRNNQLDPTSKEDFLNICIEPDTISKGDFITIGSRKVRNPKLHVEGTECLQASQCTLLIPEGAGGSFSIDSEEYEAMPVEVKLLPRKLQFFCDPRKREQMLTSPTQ
The conditions noted are these: direction down.

For assay [4], the target named is T2, protein kinases (human kinome) (Homo sapiens, UniProt Q96L34).
T2 sequence (Q96L34 1-752): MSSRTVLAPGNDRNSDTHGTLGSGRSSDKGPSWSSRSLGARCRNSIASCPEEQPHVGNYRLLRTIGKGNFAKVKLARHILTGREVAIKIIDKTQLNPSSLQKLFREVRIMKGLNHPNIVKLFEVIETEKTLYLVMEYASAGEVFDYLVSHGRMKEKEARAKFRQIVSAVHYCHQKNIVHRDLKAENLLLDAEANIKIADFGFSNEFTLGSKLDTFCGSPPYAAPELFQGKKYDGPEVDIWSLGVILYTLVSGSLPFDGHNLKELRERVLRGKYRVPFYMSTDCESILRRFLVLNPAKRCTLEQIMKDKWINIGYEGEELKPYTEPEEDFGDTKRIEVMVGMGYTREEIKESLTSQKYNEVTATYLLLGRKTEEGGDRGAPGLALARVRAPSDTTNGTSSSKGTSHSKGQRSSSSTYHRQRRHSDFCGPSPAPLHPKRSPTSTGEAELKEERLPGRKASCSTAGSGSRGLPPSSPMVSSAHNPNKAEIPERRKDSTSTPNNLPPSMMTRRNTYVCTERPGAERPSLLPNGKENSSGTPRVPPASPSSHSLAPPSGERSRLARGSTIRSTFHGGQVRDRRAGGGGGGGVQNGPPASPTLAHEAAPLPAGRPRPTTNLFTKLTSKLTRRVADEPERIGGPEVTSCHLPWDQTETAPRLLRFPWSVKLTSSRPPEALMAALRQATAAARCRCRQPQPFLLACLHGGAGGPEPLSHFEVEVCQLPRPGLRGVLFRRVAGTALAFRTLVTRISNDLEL
The conditions noted are these: for logFC MARK4: Accession Q96L34-1.

Where [5] appears, read: Accession Q9NYV4-1, experiment wp146.
[6] abbreviates: CDK12 (Q9NYV4-1), experiment wp146.

Chain of protein kinases (human kinome) (Homo sapiens, UniProt Q9NYV4) (Q9NYV4 whole entry): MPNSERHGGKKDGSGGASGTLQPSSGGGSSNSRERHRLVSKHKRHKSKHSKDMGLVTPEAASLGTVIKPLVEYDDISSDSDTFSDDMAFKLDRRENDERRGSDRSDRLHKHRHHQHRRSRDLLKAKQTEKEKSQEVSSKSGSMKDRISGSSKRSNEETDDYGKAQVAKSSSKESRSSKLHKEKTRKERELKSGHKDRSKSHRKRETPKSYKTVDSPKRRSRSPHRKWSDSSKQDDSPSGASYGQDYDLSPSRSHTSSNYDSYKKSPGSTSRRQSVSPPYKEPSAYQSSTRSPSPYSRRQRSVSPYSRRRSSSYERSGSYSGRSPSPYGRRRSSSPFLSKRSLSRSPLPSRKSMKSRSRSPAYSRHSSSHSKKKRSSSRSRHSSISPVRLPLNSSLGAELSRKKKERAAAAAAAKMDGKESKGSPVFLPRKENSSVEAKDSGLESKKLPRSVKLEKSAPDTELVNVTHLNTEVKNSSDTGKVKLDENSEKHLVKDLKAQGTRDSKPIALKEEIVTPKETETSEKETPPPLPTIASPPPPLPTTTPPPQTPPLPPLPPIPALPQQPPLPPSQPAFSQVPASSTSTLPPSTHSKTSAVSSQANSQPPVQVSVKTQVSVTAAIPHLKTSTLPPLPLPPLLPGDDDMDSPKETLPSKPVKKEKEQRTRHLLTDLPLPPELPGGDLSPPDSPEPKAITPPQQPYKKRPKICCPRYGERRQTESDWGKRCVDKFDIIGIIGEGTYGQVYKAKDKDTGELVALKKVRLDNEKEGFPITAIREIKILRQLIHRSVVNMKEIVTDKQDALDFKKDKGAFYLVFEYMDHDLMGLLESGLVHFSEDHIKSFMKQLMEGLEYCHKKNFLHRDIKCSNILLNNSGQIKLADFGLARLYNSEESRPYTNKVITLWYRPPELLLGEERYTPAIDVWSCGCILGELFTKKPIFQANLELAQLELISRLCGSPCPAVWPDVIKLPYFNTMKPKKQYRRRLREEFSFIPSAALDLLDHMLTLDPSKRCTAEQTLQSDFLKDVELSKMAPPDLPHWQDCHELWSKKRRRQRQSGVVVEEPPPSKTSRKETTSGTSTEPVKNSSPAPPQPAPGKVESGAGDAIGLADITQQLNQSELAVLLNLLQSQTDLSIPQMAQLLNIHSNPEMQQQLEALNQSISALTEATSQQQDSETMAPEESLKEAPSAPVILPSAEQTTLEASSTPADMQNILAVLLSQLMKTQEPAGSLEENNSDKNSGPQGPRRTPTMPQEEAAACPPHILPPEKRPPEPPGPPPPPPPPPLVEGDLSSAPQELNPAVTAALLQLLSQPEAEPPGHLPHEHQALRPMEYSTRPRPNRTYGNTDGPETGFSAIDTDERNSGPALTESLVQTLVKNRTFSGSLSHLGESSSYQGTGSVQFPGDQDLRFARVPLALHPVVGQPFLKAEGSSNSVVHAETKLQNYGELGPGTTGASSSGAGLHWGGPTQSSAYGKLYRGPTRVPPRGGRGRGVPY
Chain of protein kinases (human kinome) (Homo sapiens, UniProt P41240) (P41240 whole entry): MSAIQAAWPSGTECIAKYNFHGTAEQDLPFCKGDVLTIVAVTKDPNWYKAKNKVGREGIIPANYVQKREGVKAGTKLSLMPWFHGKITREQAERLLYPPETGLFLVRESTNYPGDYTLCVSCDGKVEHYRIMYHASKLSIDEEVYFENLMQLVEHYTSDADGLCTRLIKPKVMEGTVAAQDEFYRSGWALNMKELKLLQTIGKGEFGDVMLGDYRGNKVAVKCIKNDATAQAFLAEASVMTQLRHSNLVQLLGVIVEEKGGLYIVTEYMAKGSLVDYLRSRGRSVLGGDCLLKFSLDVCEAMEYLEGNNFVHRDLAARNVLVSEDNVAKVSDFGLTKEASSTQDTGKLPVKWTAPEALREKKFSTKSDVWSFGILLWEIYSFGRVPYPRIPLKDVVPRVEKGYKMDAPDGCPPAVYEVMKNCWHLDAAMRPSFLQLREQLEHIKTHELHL

With `NC(=O)c1c(F)cccc1Nc1nc(Nc2ccc(S(=O)(=O)NCCOCCOCCOCCOCCNc3cccc4c3C(=O)N(C3CCC(=O)NC3=O)C4=O)cc2)ncc1Br` (centres unmarked) [TMX.02.138], the “logFC CDK12” value in assay [1] (setting [5]) and in assay [1] (setting [6]) was −1.018 in each case.
Regarding `Cc1ccc(NC(=O)c2cccc(C(F)(F)F)c2)cc1N1Cc2cnc(Nc3ccc(N4CCN(CCCCCCOc5cccc6c5C(=O)N(C5CCC(=O)NC5=O)C6=O)CC4)nc3)nc2N(C)C1=O` (centres unmarked) [DB0663], in assay [2] (experiment wp045), the “logFC of CSK” value is on record as −1.206 and the “logFC CSK” value is listed as −1.206.
For the compound `Cc1ccc(C(=O)Nc2ccc(CN3CCN(CCCOCCOCCOCCNC(=O)COc4cccc5c4C(=O)N(C4CCC(=O)NC4=O)C5=O)CC3)c(C(F)(F)F)c2)cc1C#Cc1cnc2cccnn12` (centres unmarked) [SB1.G.187], the “logFC AGK (Q53H12)” value in assay [3] (Experiment wp056) was −0.5707.
With `Cc1cnc(Nc2ccc(N3CCN(CCCCCCC(=O)N[C@H](C(=O)N4C[C@H](O)C[C@H]4C(=O)N[C@@H](C)c4ccc(-c5scnc5C)cc4)C(C)(C)C)CC3)cc2)nc1Nc1cccc(S(=O)(=O)NC(C)(C)C)c1` [JWG.123], the “logFC MARK4” value in assay [4] (experiment wp195) was −1.532. For the same compound, the “logFC MARK4 (Q96L34-1)” value in assay [4] (Experiment wp195) is listed as −1.532.
Regarding `Nc1ncnc2c1c(-c1ccc(Oc3ccccc3)cc1)nn2[C@H]1CC[C@H](N2CCN(CCOCCNC(=O)CNc3cccc4c3C(=O)N(C3CCC(=O)NC3=O)C4=O)CC2)CC1` (some centres unmarked) [SB1.G.181], in assay [3] (Experiment wp071), the “logFC AGK (Q53H12)” value is on record as −0.3991. In assay [2] (experiment wp071), the “logFC of CSK” value is listed as −3.229 and the “logFC CSK” value is listed as −3.229.
With `Cc1ncsc1-c1ccc([C@H](C)NC(=O)[C@@H]2C[C@@H](O)CN2C(=O)[C@@H](NC(=O)CCCCCN2CCc3cc(Nc4ncc(C5CC5)c(NCCCNC(=O)C5CCC5)n4)ccc3C2)C(C)(C)C)cc1` [BSJ.05.026], the “logFC MARK4” value in assay [4] (experiment wp195) was −1.571. Also, in assay [4] (Experiment wp195), the “logFC MARK4 (Q96L34-1)” value is −1.571.
For the compound `Cc1ncsc1-c1ccc([C@H](C)NC(=O)[C@@H]2C[C@@H](O)CN2C(=O)[C@@H](NC(=O)CCCCCN2CCN(c3ccc(Nc4ncc5scc(-c6cccc(NS(C)(=O)=O)c6)c5n4)cc3)CC2)C(C)(C)C)cc1` [RSS0680, (2S,4R)-1-((S)-3,3-Dimethyl-2-(6-(4-(4-((7-(3-(methylsulfonamido)phenyl)thieno[3,2-d]pyrimidin-2-yl)amino)phenyl)piperazin-1-yl)hexanamido)butanoyl)-4-hydroxy-N—((S)-1-(4-(4-methylthiazol-5yl)phenyl)ethyl)pyrrolidine-2-carboxamide], in assay [4] (experiment wp080), the “logFC MARK4” value is −0.4537 and the “logFC MARK4 (Q96L34-1)” value is given as −0.4537.
As for `Cc1ncsc1-c1ccc([C@H](C)NC(=O)[C@@H]2C[C@@H](O)CN2C(=O)[C@@H](NC(=O)CCOCCOCCN2CCN(c3ccc(Nc4ncc(Cl)c(Nc5ccccc5S(=O)(=O)C(C)C)n4)cc3)CC2)C(C)(C)C)cc1` [FMF.06.098.1], the “logFC CDK12” value in assay [1] (Accession Q9NYV4-1, experiment wp131) is recorded as −0.5732; in assay [1] (CDK12 (Q9NYV4-1), experiment wp131), −0.5732. In addition, the “logFC MARK4” value in assay [4] (experiment wp108) is −0.9041; in assay [4] (experiment wp114) it was −0.7224; in assay [4] (experiment wp131), −1.111. In addition, the “logFC MARK4 (Q96L34-1)” value in assay [4] (Experiment wp108) is recorded as −0.9041; in assay [4] (experiment wp114), −0.7224; in assay [4] (experiment wp131), −1.111.
With `Cc1cc(Nc2ncc(Br)c(Nc3cccc(F)c3C(N)=O)n2)ccc1S(=O)(=O)NCCOCCOCCOCCOCCNc1cccc2c1C(=O)N(C1CCC(=O)NC1=O)C2=O` (centres unmarked) [TMX.02.174], the “logFC CDK12” value in assay [1] (setting [5]) and in assay [1] (setting [6]) was −0.8562 throughout.
On to `CNC(=O)c1ccccc1Nc1cc(Nc2ccc(N3CCN(CCOCCOCCNC(=O)CNc4cccc5c4C(=O)N(C4CCC(=O)NC4=O)C5=O)CC3)cc2OC)ncc1C(F)(F)F` (centres unmarked) [MFH.5.103.1], for which, in assay [3] (Experiment wp076), the “logFC AGK (Q53H12)” value is reported as −0.3672.
For the compound `O=C(COc1cccc2c1C(=O)N(C1CCC(=O)NC1=O)C2=O)NCCCCCCCN1CCc2cc(Nc3ncc(C4CC4)c(NCCCNC(=O)C4CCC4)n3)ccc2C1` (centres unmarked) [BSJ.04.178], in assay [4] (experiment wp134), the “logFC MARK4” value is given as −0.993 and the “logFC MARK4 (Q96L34-1)” value is given as −0.993.
Regarding `Cc1ccc(NC(=O)c2cccc(C(F)(F)F)c2)cc1N1Cc2cnc(Nc3ccc(N4CCN(CCCCC(=O)N[C@H](C(=O)N5C[C@H](O)C[C@H]5C(=O)N[C@@H](C)c5ccc(-c6scnc6C)cc5)C(C)(C)C)CC4)nc3)nc2N(C)C1=O` [DB1113], in assay [2] (experiment wp168), the “logFC of CSK” value is reported as −1.62 and the “logFC CSK” value is reported as −1.62.
For the compound `CC(C)S(=O)(=O)c1ccccc1Nc1nc(Nc2ccc(N3CCN(CCOCCNC(=O)CNc4ccc5c(c4)C(=O)N(C4CCC(=O)NC4=O)C5=O)CC3)cc2)ncc1Cl` (centres unmarked) [SK.3.93], the “logFC CDK12” value is on record as −0.9555 in assay [1] (Accession Q9NYV4-1, experiment wp016) and −0.9555 in assay [1] (CDK12 (Q9NYV4-1), experiment wp016).
In the case of `Cc1ccc(NC(=O)c2cccc(C(F)(F)F)c2)cc1N1Cc2cnc(Nc3ccc(N4CCN(CCCOc5cccc6c5C(=O)N(C5CCC(=O)NC5=O)C6=O)CC4)nc3)nc2N(C)C1=O` (centres unmarked) [DB0662], in assay [2] (experiment wp168), the “logFC of CSK” value was −1.833 and the “logFC CSK” value was −1.833.
As to `Cn1c(=O)c(-c2c(Cl)cccc2Cl)cc2cnc(Nc3ccc(OCCNC(=O)CCCCCCNC(=O)COc4cccc5c4C(=O)N(C4CCC(=O)NC4=O)C5=O)cc3)nc21` (centres unmarked) [SB1.G.192.1], the “logFC of CSK” value is −2.271 in assay [2] (experiment wp071), −1.966 in assay [2] (experiment wp081) and −1.816 in assay [2] (experiment wp131). In addition, the “logFC CSK” value in assay [2] (experiment wp071) is −2.271; in assay [2] (experiment wp081), −1.966; in assay [2] (experiment wp131), −1.816.
As to `CC(C)S(=O)(=O)c1ccccc1Nc1nc(Nc2ccc(N3CCN(CCOCCOCCC(=O)NCCNc4cccc5c4CN(C4CCC(=O)NC4=O)C5=O)CC3)cc2)ncc1Cl` (centres unmarked) [TL13.97], in assay [4] (experiment wp137), the “logFC MARK4” value is listed as −1.74 and the “logFC MARK4 (Q96L34-1)” value is recorded as −1.74.
